Assay results from patent publication US20190112580A1, “METHODS FOR TREATING CO[…] AND RELATED CULTURED CELLS” (priority 2017, published 2019).

What was measured:
Aurora C kinase = Aurora C kinase (Homo sapiens, UniProt Q9UQB9); settings: cited from earlier work
[1] = system: satellite cell-derived myoblasts
Method: Myoblasts were grown in the high-serum medium until reaching a 60-70% confluence by visual inspection in 12-well plate culture dishes.
In a first set of wells, the myoblast cell preparations were placed in a high-serum medium until about 70% confluence was reached. […] These myoblast cell preparations were then switched to a low-serum medium (as described in Example 1) for four days to promote fusion and myotube formation.
In a second set of wells, the myoblast cell preparations were placed in a high-serum medium until about 70% confluence was reached. Then, the myoblast cell preparations were exposed to 5 μM of 5-azacytidine in the high-serum medium for 6 hours. These myoblast cell preparations were finally switched to a low-serum medium (as described in Example 1) for 4 days to promote fusion and myotube formation.
In a third set of wells, the myoblast cell preparations were placed in a high-serum medium until about 70% confluence was reached. These myoblast cell preparations were then exposed to 5 μM of 5-azacytidine in the high-serum medium for 24 hours. These myoblast cell preparations were finally switched to a low-serum medium (as described in Example 1) for 4 days to promote fusion and myotube formation.
In a fourth set of wells, the myoblast cell preparations were placed in a high-serum medium until about 70% confluence was reached.
In a fifth set of wells, the myoblast cell preparations were placed in a high-serum medium until about 70% confluence was reached. […] These same myoblast cell preparations were finally switched to a low-serum medium for 4 days to promote fusion and myotube formation.
FIG. 5, from left to right, depicts 5 columns with 5 different assays on myotube preparations differentiated from the myoblast cell preparations in the 12-well dishes. […] The second column reflects myotubes differentiated from a myoblast cell preparation from the second set of wells, which was exposed to 5 μM of 5-AZA in high serum medium for 6 hours. The third column reflects myotubes differentiated from a myoblast cell preparation from the third set of wells, which was exposed to 5 μM of 5-AZA in high serum medium for 24 hours. […] The immunostainings on the top row of FIG. 5 identifies lipid membranes (green color, WGA), nuclei (blue color, DAPI) and myotubes (red color, ACTA2). The gray-scale panels (middle row) show staining for nuclei only (DAPI). The gray-scale panels in the bottom row show staining for muscle fibers only (ACTA2).
Briefly, satellite cells were isolated from muscle biopsies obtained from TD children during surgical procedures, sorted using FACS, plated in gelatin coated dishes, and grown into proliferation medium in 12-well plates.

C2C12 myoblasts = settings: mouse-derived C2C12 muscle cell lines; cited from earlier work
porcine satellite cells = settings: 10 μM for 48 hours (Fan et al.); cited from earlier work

Sequence of Aurora C kinase (Q9UQB9 whole entry): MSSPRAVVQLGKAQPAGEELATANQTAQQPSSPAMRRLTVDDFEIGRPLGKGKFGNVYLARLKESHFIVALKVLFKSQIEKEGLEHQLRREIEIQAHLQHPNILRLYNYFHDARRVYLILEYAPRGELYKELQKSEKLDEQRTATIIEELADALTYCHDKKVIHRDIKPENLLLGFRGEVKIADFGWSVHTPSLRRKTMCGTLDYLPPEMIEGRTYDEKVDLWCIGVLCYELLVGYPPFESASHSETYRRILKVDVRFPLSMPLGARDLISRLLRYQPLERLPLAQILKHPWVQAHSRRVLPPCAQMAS

| Compound | IC50 (Aurora C kinase) | myoblast fusion and myotube formation ([1]; CP and TD myoblasts, FIG. 5 and FIG. 6, 5 μM) | cell death and polyploidy (nuclei) ([1]; CP myoblasts, FIG. 5, 5 μM) | morphological changes to the membranes of the cells (WGA staining) ([1]; CP myoblasts, FIG. 5, 5 μM, 3 days) | morphological changes to ACTA2-negative cells and nuclei ([1]; TD myoblasts, FIG. 6, 5 μM) | cell death over time ([1]; myoblasts) | de-differentiation of myoblasts ([1]; myoblasts) | muscle-specific gene expression, myogenesis and myotube formation (C2C12 myoblasts) | cell viability (porcine satellite cells) | myogenic response (porcine satellite cells) |
| --- | --- | --- | --- | --- | --- | --- | --- | --- | --- | --- |
| c1nc2nc(Nc3ccc(N4CCOCC4)cc3)nc(NC3CCCCC3)c2[nH]1 [Reversine, 2-(4-morpholinoanilino)-6-cyclohexylaminopurine] | 20 nM | shown to promote myoblast fusion and myotube formation | lower in number and suffer from polyploidy | causes morphological changes to the membranes of the cells | led to significant morphological changes to ACTA2-negative cells and nuclei in general | over time also leads to cell death | causes myoblasts to de-differentiate |  |  |  |
| Nc1ncn([C@H]2C[C@H](O)[C@@H](CO)O2)c(=O)n1 [decitabine, 5-aza-2′-deoxycytidine] |  |  |  |  |  |  |  | promoted expression of muscle-specific genes, enhanced myogenesis and myotube formation | no change in cell viability | positive myogenic response |
